In one data set the test system is mice. In words: animal or person. Format: in vivo. The conditions noted are these: mice. The procedure:
All tests were performed during the light period. Groups of mice, rats and rabbits were injected intravenously (lateral tail vein) over 10 s with each dose of test compound, placed in separate boxes to reduce external stimuli and assessed for the loss of righting reflex. Dosing was performed using mg/kg scheme. A set of dose levels was chosen, and depending on whether the loss of righting reflex was observed, extra doses were introduced to provide data for the loss of righting reflex over a narrow dose range to allow potency calculations. From the percentage of mice, rats and rabbits in each group showing loss of righting reflex for ≥30 s, a probit analysis (SAS Institute) was performed to obtain an HD50 for each compound with 95% confidence limits.
Immediately following the injection, the mice, rats and rabbits were tested for loss of righting reflex. […] Once a loss was observed, the interval between the loss of righting reflex and the return to righting reflex was recorded. The anesthetized animals recovered righting reflexes spontaneously. To compare the duration of LORR of each compound at equipotent doses, groups of mice, rats and rabbits were injected with each compound at 2× HD50 over 10 s.
Time to walk was the time required after righting before mice and rabbits walked from the center to the periphery of a 30-cm diameter dise.
The rotarod test was conducted to evaluate the recovery to the motor coordination. Before the LORR test, mice were trained for 2 consecutive days. Trained mice could maintain their balance on rod for more than 2 mins. After the mice could walk from the center to the periphery of a 30-cm diameter dise, they were put on the rotarod. Mice were classified as behavioral recovery when, on being placed on the rod, they could maintain their balance for 20 s. The time to behavioral recovery was the time required after mice walked from the centre to the periphery of a 30-cm diameter disc before they could maintain their balance on rod for 20 s.

In a further data set the test system is GABAA receptor. In words: GABAA radioligand binding assay ([3H]EBOB). The conditions noted are these: 50 µM compound, 0.5 nM [3H]EBOB, rat frontoparietal cortex. The protocol: (§1) All the new compounds were dissolved in 5% DMSO.
Specific binding was determined in the presence of compounds.
Membrane suspensions were thawed and centrifuged in incubation buffer at 10,000×g for 10 min and washed by a similar centrifugation. For displacement studies, membrane suspensions (5 mg original wet wt./ml) were incubated with 0.5 nM [^3H]EBOB ([…], Perkin Elmer Life Sciences, Boston, MA, USA) in the absence or presence of 50 µM of new compounds or reference drug for 2 h at 25°C. Nonspecific binding was determined in the presence of 10 µM Bicuculline. Bicuculline and picrotoxin were frequently used to determine the nonspecific binding when [3H]EBOB as radioligand [17]. Triplicate 1 ml samples were filtered on Whatman GF/B filters under vacuum with a Brandel Harvester and washed with 3×3 ml ice-cold buffer.

A short description of data set [1]: In vitro metabolic half-life in rat whole blood. Format: in vitro ADME. The conditions noted are these: male, Sprague-Dawley Rat (n = 3), 37°C, read-out: Mean t1/2 Value. The procedure: (§2) Human whole blood stability experiments were conducted in whole blood from four human donors (male, 18–25 years). Single experiments were conducted with pooled blood from Sprague-Dawley rats (male, 8 weeks, n = 3), New Zealand White rabbits (male, 8–10 weeks, n = 3), Beagle dogs (male, 2–3 years, n = 3) and Cynomolgus monkeys (male, 3–4 years, n = 3). All the blood samples were provided by Xuzhou Medical College. A 1.35-ml aliquot of blood was warmed at 37°C for 5 min and hypnotic (from a 40 mM stock in DMSO solution) was added to a final concentration of 200 µM. After the specified incubation time, a 150-µl sample was removed and the metabolic reaction was quenched using 150-µl acetonitrile. Zero time-point samples were prepared by adding 150-µl acetonitrile (using a 4 mM stock in DMSO) to 150-µl blood before addition of the hypnotic. The quenched samples were centrifuged, and the supernatant was separated and stored at −20°C until analyzed. Hypnotic concentrations in thawed samples were determined by high-performance liquid chromatography using a 3-µm phenyl 4.6×50-mm C-A-25, ACE column with the UV detector set at 240 nm. […] The lower limit of quantitation of this assay is 3 µM and the accuracy within 15% at 10 µM. The metabolic half-lives were quantified from the incubation time-dependent change in drug concentration.

Data set [2] is described as follows: In vitro metabolic half-life in monkey whole blood. Format: in vitro ADME. The conditions noted are these: male, Cynomolgus monkey (n = 3), 37°C, read-out: Mean t1/2 Value. The procedure: as §2
A short description of data set [3]: Octanol:water partition coefficient. It is filed as physicochemical. The conditions noted are these: water buffered with 10 mm Tris (pH 7.4). The protocol:
One mg of each hypnotic was added to 10 ml of water buffered with 10 mm Tris (pH 7.4) and 1 ml of octanol. The mixture was stirred overnight and then centrifuged to fully separate the organic and aqueous phases. The relative hypnotic concentration in each phase (i.e., the partition coefficient) was determined by high-performance liquid chromatography as described for blood.

Data set [4] relates to GABAA and dopamine D2, D3, H1, 5HT1A, 5HT2A, 5HT2C, 5HTT, α1 and α2 receptors. The conditions noted are these: 50 µmol, GABAA vs off-target receptors. The procedure:
as §1
Total binding was determined in the absence of no-specific binding and compounds. Specific binding was determined in the presence of compounds. […]
Rat cerebral cortex was homogenized in 20 volumes of ice-cold Tris-HCl buffer (50 mM, pH 7.7) using an ULTRA TURAX homogeniser, and was then centrifuged at 32000 g for 10 min. […] The final pellet was resuspended in Tris-HCl buffer containing 10 µM Pargyline, 4 mM CaCl2 and 0.1% ascorbic acid. […] The incubation was followed by a rapid vacuum filtration through Whatman GF/B glass filters, and the filtrates were washed twice with 5 mL cold buffer and transferred to scintillation vials. Scintillation fluid (3.0 mL) was added and the radioactivity bound was measured using a Beckman LS 6500 liquid scintillation counter.
Rat cerebral cortex was homogenized in 20 volumes of ice-cold Tris-HCl buffer (50 mM, pH 7.7) using an ULTRA TURAX homogeniser, and centrifuged at 32000 g for 20 min. The resulting pellet was resuspended in the same quantity of the buffer centrifuged for 20 min. […] Scintillation fluid (3.0 mL) was added and the radioactivity bound was measured using a Beckman LS 6500 liquid scintillation counter.
The resulting pellet was resuspended in the same quantity of the buffer centrifuged for 20 min.

In the case of `CCOc1cc(CC(=O)OCC(F)(F)F)ccc1OCC(=O)N(CC)CC` [Compound 5j, 2,2,2-trifluoroethyl 2-(4-(2-(diethylamino)-2-oxoethoxy)-3-ethoxyphenyl)acetate], the ED50 with mice (Mus musculus, IV over 10 s, 95% confidence limits, read-out: HD50 (the source's name)) stood at 24.6 mg/kg. The compound also displayed a Time to walk in the data set with mice (2× HD50) of 17.3 ± 5.8 s. For the same compound, in the data set on mice (2× HD50, rotarod), the “time to behavioral recovery” value was determined as 28.2 ± 6.4 s. Moreover, in the data set with mice (IV 2× HD50, mean ± SD (n = 10)), the “Duration of LORR” value was 59.1 ± 7.4 s. Further, the Onset time with mice (IV, mean ± SD (n = 10)) worked out at 5.3 ± 1.2 s. Also, in the data set with GABAA receptor, the “GABAA binding (50 µmol) (Mean ± SD), percentage of inhibition” value is given as 90.5±6.9%. For the same compound, the half-life at 200 µM in data set [1] came to 0.4 ± 0.1 min; in data set [2], 48.9 ± 8.8 min. Moreover, the “Octanol:Water Partition (Coefficient ± SD)” value in data set [3] amounted to 648±36. Further, in data set [4], the binding selectivity profile entry is listed as “selective binding to the GABAA receptor”.

The values above are taken from PMC4010497, “Synthesis and Evaluation of Fluorine-Substituted Phenyl Acetate Derivatives as Ultra-Short Recovery Sedative/Hypnotic Agents” (PLoS ONE, 2014).
